# Active and inactive are the calls of the source. The rule behind the calls is not given here.
# What was measured:
# in vitro = settings: PAMPA
# Description: Permeability of the compound in PBS and EtOH by PAMPA method
# Acetylcholinesterase [1] = target: Acetylcholinesterase (Electrophorus electricus, UniProt O42275)
# Description: Inhibition of electric eel AChE using acetylthiocholine iodide as substrate preincubated for 6 mins before substrate addition by Ellman's method
# Cholinesterase [2] = target: Cholinesterase (Equus caballus, UniProt P81908)
# Description: Inhibition of equine serum BuChE using S-butyrylthiocholine iodide as substrate preincubated for 6 mins before substrate addition by Ellman's method
# Acetylcholinesterase [3] = target: Acetylcholinesterase (Homo sapiens, UniProt P22303)
# Description: Inhibition of human erythrocyte AChE using acetylthiocholine iodide as substrate preincubated for 6 mins before substrate addition by Ellman's method
# Cholinesterase [4] = target: Cholinesterase (Homo sapiens, UniProt P06276)
# Description: Inhibition of human serum BuChE using S-butyrylthiocholine iodide as substrate preincubated for 6 mins before substrate addition by Ellman's method
# [5] = target: Acetylcholinesterase (Electrophorus electricus) (UniProt O42275); assay: Mixed-type inhibition of electric eel AChE using acetylthiocholine iodide as substrate by Lineweaver-Burk double reciprocal plot method
# Sequence of Acetylcholinesterase (Electrophorus electricus) (O42275 24-633 limits assumed): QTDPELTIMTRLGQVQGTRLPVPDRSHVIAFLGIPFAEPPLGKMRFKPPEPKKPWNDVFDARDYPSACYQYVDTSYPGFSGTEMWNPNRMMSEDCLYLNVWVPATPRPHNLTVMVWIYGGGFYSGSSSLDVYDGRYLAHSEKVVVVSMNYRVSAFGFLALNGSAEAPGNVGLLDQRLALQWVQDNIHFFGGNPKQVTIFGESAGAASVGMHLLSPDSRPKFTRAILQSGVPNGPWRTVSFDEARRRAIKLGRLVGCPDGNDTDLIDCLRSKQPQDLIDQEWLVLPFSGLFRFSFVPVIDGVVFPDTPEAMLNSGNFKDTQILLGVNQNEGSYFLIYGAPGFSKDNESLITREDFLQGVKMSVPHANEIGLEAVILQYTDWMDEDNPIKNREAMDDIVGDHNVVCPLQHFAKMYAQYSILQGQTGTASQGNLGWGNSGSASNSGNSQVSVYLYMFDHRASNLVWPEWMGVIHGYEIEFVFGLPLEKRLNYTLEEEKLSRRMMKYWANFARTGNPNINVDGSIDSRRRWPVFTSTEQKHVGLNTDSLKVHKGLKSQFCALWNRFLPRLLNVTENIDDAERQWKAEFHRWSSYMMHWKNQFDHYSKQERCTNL
# PC-12 [6] = assay: Neuroprotective activity against H2O2-induced oxidative stress in rat PC12 cells assessed as inhibition of cell death preincubated at 3.125 to 6.25 uM for 2 hrs before H2O2 addition measured after 24 hrs by MTT assay; assay type: functional, cell-based
# PC-12 [7] = assay: Neuroprotective activity against H2O2-induced oxidative stress in rat PC12 cells assessed as cell viability preincubated at 12.5 to 6.25 uM for 2 hrs before H2O2 addition measured after 24 hrs by MTT assay; assay type: functional, cell-based
# [8] = Cytotoxicity against rat PC12 cells assessed as reduction in cell viability at 1.563 to 12.5 uM after 48 hrs by MTT assay; assay type: cell-based; settings: pc-12, 48 h
# Rattus norvegicus [9] = assay: Hepatotoxicity in Sprague-Dawley rat assessed as increase in aspartate aminotransferase activity in serum at 6 umol/100g body weight, ip measured up to 72 hrs; assay type: toxicity, organism-based; settings: in vivo
# Rattus norvegicus [10] = assay: Hepatotoxicity in Sprague-Dawley rat assessed as increase in alanine aminotransferase activity in serum at 6 umol/100g body weight, ip measured up to 72 hrs; assay type: toxicity, organism-based; settings: in vivo
# Rattus norvegicus [11] = assay: Hepatotoxicity in Sprague-Dawley rat at 6 umol/100g body weight, ip measured after 24 hrs by histomorphological study; assay type: toxicity, organism-based; settings: in vivo
# Sequence of Acetylcholinesterase (Homo sapiens, UniProt P22303) (P22303 whole entry): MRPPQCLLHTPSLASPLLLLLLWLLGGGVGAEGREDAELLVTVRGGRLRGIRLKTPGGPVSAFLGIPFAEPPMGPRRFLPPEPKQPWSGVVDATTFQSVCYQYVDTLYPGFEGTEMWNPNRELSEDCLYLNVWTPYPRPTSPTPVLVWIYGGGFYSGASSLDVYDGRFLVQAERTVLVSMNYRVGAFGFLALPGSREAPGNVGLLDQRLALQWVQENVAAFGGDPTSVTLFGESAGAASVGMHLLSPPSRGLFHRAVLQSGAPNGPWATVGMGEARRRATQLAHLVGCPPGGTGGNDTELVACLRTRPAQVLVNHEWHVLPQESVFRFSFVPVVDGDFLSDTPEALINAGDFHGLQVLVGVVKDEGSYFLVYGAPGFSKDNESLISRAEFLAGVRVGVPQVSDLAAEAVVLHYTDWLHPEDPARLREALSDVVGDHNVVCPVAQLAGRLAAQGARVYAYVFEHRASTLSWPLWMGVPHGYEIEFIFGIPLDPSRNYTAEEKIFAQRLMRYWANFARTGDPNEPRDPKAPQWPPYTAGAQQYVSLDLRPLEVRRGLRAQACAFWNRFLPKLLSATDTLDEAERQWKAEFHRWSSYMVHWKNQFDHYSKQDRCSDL
# Sequence of Acetylcholinesterase (Electrophorus electricus, UniProt O42275) (O42275 whole entry): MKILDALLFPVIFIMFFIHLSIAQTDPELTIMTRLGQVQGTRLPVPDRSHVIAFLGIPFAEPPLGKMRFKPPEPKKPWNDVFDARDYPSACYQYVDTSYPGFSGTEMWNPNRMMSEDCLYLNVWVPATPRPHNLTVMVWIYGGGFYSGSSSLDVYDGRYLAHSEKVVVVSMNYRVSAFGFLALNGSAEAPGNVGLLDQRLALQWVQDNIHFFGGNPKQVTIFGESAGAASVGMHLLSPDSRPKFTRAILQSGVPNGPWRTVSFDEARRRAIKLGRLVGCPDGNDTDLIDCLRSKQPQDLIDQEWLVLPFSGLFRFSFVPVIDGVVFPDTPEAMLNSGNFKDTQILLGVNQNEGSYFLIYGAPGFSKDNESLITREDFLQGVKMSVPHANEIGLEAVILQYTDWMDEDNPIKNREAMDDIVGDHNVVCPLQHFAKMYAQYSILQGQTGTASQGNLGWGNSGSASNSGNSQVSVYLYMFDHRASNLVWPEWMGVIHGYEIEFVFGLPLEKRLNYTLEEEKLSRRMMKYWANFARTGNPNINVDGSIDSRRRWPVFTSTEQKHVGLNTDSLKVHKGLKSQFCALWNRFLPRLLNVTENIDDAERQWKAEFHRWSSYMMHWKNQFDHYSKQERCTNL
# Sequence of Cholinesterase (Homo sapiens, UniProt P06276) (P06276 whole entry): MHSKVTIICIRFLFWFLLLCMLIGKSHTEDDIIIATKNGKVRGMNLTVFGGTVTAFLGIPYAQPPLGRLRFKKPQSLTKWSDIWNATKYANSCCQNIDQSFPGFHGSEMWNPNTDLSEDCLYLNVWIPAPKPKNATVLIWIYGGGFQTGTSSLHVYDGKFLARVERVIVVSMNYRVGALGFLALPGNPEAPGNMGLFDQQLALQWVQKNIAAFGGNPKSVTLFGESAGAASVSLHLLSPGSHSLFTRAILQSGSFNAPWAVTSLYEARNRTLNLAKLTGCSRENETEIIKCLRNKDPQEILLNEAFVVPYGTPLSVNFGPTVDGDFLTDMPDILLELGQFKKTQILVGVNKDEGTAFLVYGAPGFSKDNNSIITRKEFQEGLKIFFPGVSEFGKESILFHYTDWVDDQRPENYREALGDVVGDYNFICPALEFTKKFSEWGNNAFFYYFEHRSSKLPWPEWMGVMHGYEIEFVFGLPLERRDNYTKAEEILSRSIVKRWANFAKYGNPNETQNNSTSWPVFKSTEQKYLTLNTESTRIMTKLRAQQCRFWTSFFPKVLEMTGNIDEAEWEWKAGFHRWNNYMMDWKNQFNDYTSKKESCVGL
# Sequence of Cholinesterase (Equus caballus, UniProt P81908) (P81908 whole entry): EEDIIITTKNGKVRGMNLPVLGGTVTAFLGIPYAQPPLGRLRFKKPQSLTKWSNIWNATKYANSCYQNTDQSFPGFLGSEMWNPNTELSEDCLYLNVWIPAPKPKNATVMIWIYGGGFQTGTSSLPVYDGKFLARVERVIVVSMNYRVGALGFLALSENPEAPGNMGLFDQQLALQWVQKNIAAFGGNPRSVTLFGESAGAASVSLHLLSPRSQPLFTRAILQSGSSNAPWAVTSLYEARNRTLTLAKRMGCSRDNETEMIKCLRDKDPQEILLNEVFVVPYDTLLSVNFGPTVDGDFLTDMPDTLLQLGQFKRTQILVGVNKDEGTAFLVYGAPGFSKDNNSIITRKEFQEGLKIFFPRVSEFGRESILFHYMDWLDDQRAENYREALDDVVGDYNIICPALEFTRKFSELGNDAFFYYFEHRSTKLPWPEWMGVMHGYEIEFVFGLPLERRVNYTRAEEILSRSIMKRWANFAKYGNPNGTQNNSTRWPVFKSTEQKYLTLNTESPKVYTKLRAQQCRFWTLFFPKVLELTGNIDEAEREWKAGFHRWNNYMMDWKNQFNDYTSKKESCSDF
Compound,Papp (in vitro) [×10⁻⁶ cm/s],IC50 (Acetylcholinesterase [1]) [nM],IC50 (Cholinesterase [2]) [nM],IC50 (Acetylcholinesterase [3]) [nM],IC50 (Cholinesterase [4]) [nM],IC50 [nM],further results
C[C@]12CCC(=O)C=C1CC[C@@H]1[C@@H]2CC[C@@]2(C)[C@H]1CC[C@]2(O)C(=O)CO [CORTODOXONE],2.5,–,–,–,–,–,–
Cc1c(C)c2c(c(C)c1O)CCC(C)(C(=O)NCCCCCCCNc1c3c(nc4ccccc14)CCCC3)O2 (configuration not stated),–,92.4,61.7,144,19.2,46.9,–
Cc1c(C)c2c(c(C)c1O)CCC(C)(C(=O)NCCCCCCNc1c3c(nc4ccccc14)CCCC3)O2 (configuration not stated),8.87,9.8,22.2,23.5,20.5,48.7,inhibition [5]: Active; inhibition (PC-12 [6]): Active; inhibition (PC-12 [7]): inactive; Activity [8]: Non-toxic; Activity (Rattus norvegicus [9]): Non-toxic; Activity (Rattus norvegicus [10]): Non-toxic; Activity (Rattus norvegicus [11]): Non-toxic
Cc1c(C)c2c(c(C)c1O)CCC(C)(C(=O)NCCCCCCCCCCNc1c3c(nc4ccccc14)CCCC3)O2 (configuration not stated),–,387,263,453,110,43.2,–
CCn1cc(C(=O)O)c(=O)c2cc(F)c(N3CCNC(C)C3)c(F)c21 (configuration not stated) [LOMEFLOXACIN],0.8,–,–,–,–,–,–
Cc1c(C)c2c(c(C)c1O)CCC(C)(C(=O)NCCCCCCCCNc1c3c(nc4ccccc14)CCCC3)O2 (configuration not stated),–,228,151,226,34.7,47.3,–
Cc1c(C)c2c(c(C)c1O)CCC(C)(C(=O)NCCCCNc1c3c(nc4ccccc14)CCCC3)O2 (configuration not stated),–,558,15.6,535,5.2,44.2,–
Cc1c(C)c2c(c(C)c1O)CCC(C)(C(=O)NCCCCCNc1c3c(nc4ccccc14)CCCC3)O2 (configuration not stated),–,250,35.4,215,10.2,40.7,–
Cc1c(C)c2c(c(C)c1O)CCC(C)(C(=O)NCCNc1c3c(nc4ccccc14)CCCC3)O2 (configuration not stated),–,150,41.3,284,56.3,30.4,–
Cc1c(C)c2c(c(C)c1O)CCC(C)(C(=O)O)O2 (configuration not stated) [TROLOX],–,–,–,–,–,35.6,–
CN1C(C(=O)Nc2ccccn2)=C(O)c2ccccc2S1(=O)=O [PIROXICAM],0.6,–,–,–,–,–,–

# — ChEMBL document CHEMBL3407429, “Multifunctional tacrine-trolox hybrids for the treatment of Alzheimer's disease with cholinergic, antioxidant, neuroprotective and hepatoprotective properties” (Eur J Med Chem, 2015)
